Test results from publication PMC10851415 (Biochemistry, 2024).

Key:
[1] = molecular target: T1, I38T mutant PAN endonuclease (Influenza A virus, UniProt C3W5S0, DEL52-63/E64G/I38T); format: binding, influenza A/California/04/2009(H1N1)
WT and I38T mutants = settings: cited from earlier work
[2] = molecular target: T2, E23K mutant PAN endonuclease (Influenza A virus, UniProt C3W5S0, DEL52-63/E23K/E64G); format: binding, influenza A/California/04/2009(H1N1)
I38T mutant = settings: cited from earlier work
[3] = molecular target: T2, E23K mutant PAN endonuclease; format: binding, influenza A/California/04/2009(H1N1); remark: listed apart in the source
WT PAN endonuclease [4] = molecular target: T3, WT PAN endonuclease (Influenza A virus, UniProt C3W5S0, DEL52-63/E64G); format: binding, influenza A/California/04/2009(H1N1)
[5] = molecular target: A36V mutant PAN endonuclease (Influenza A virus, UniProt C3W5S0, A36V/DEL52-63/E64G); format: binding, influenza A/California/04/2009(H1N1); settings: 200 µM
[6] = molecular target: T1, I38T mutant PAN endonuclease; format: binding, influenza A/California/04/2009(H1N1); remark: listed apart in the source
WT PAN endonuclease [7] = molecular target: T3, WT PAN endonuclease; format: binding, influenza A/California/04/2009(H1N1); settings: 200 µM

## baloxavir acid [BXA]
[1]
  Kd: 9.3 ± 4.2 µM
WT and I38T mutants
  ΔTM melting value between the WT and I38T mutants: 8-10 °C
[2]
  difference in ΔTM compared to WT (lower): < 3 °C
[2]; 200 µM
  ΔTM: 19.8 ±0.06 °C
I38T mutant
  reduction in affinity: 30- to 50 fold
[3]
  Kd: 26.1 ± 11.2 µM
WT PAN endonuclease [4]
  Kd: 0.343 ± 0.106 µM
[5]
  ΔTM: 21.7 ±0.11 °C
[6]
  difference in ΔTM compared to WT (lower): ~ 8 °C
[6]; 200 µM
  ΔTM: 14.9 ±0.04 °C
WT PAN endonuclease [7]
  ΔTM: 22.9 ±0.08 °C
